{"source": "patent US20030026872A1", "about": "“Compositions having enhanced aqueous solubility and methods of their preparation” (The Procter & Gamble Co., priority 2001, published 2003)", "origin": "cited, not measured here", "note": "Peptide text beside a SMILES is read from it.", "data": [{"conditions": "relative to sucrose", "values": [{"molecule": "O=C1NS(=O)(=O)c2ccccc21", "note": "[saccharin]", "relative sweetening intensity (RSI)": "about 300 times that of sucrose"}, {"molecule": "OC[C@@H](O)[C@@H](O[C@H]1O[C@H](CO)[C@@H](O)[C@H](O)[C@H]1O)[C@H](O)[C@@H](O)CO", "note": "[maltitol]", "relative sweetening intensity (RSI)": "about 0.8 times that of sucrose"}, {"molecule": "C=C1C[C@@]23CC[C@H]4[C@@](C)(CCC[C@@]4(C)C(=O)O[C@@H]4O[C@H](CO)[C@@H](O)[C@H](O)[C@H]4O)[C@@H]2CC[C@]1(O[C@@H]1O[C@H](CO)[C@@H](O)[C@H](O)[C@H]1O[C@@H]1O[C@H](CO)[C@@H](O)[C@H](O)[C@H]1O)C3", "note": "[stevioside]", "relative sweetening intensity (RSI)": "about 300 times that of sucrose"}, {"molecule": "CC1=CC(=O)[N-]S(=O)(=O)O1.[K+]", "note": "[acesulfame K]", "relative sweetening intensity (RSI)": "about 200 times that of sucrose"}, {"molecule": "OC[C@H]1O[C@H](O[C@]2(CCl)O[C@H](CCl)[C@@H](O)[C@@H]2O)[C@H](O)[C@@H](O)[C@H]1Cl", "note": "[sucralose]", "relative sweetening intensity (RSI)": "about 600 times that of sucrose"}, {"molecule": "CC(C)=CCC[C@](C)(O)[C@@H]1CCC(C)=CC1=O", "note": "[hemandulcin]", "relative sweetening intensity (RSI)": "about 1000 times that of sucrose"}, {"molecule": "COC(=O)[C@H](Cc1ccccc1)NC(=O)[C@@H](N)CC(=O)O", "note": "[aspartame, N-L-alpha-aspartyl-phenylalanine-l-methyl ester] (H-Asp-Phe-OMe)", "relative sweetening intensity (RSI)": "about 180 times that of sucrose"}, {"molecule": "isomalt", "relative sweetening intensity (RSI)": "about 0.5 times that of sucrose"}, {"molecule": "C[C@@H](NC(=O)[C@@H](N)CC(=O)O)C(=O)NC1C(C)(C)SC1(C)C", "note": "[alitame]", "relative sweetening intensity (RSI)": "about 2000 times that of sucrose"}, {"molecule": "OC[C@H]1O[C@@](CO)(O[C@H]2O[C@H](CO)[C@@H](O)[C@H](O)[C@H]2O)[C@@H](O)[C@@H]1O", "note": "[sucrose]", "relative sweetening intensity (RSI)": "one"}, {"molecule": "OC[C@@H](O)[C@@H](O)[C@H](O)[C@H](O)CO", "note": "[mannitol]", "relative sweetening intensity (RSI)": "about 0.7 times that of sucrose"}, {"molecule": "OC[C@@H](O)[C@H](O)[C@@H](O)CO", "note": "[xylitol]", "relative sweetening intensity (RSI)": "about equal to sucrose"}, {"molecule": "OC[C@@H](O)[C@@H](O)[C@H](O)[C@@H](O)CO", "note": "[sorbitol]", "relative sweetening intensity (RSI)": "about 0.6 times that of sucrose"}, {"molecule": "OC[C@@H](O)[C@@H](O)CO", "note": "[erythritol]", "relative sweetening intensity (RSI)": "about 0.7 times that of sucrose"}, {"molecule": "OC[C@@H](O)[C@@H](O[C@@H]1O[C@H](CO)[C@H](O)[C@H](O)[C@H]1O)[C@H](O)[C@@H](O)CO", "note": "[lactitol]", "relative sweetening intensity (RSI)": "about 0.4 times that of sucrose"}, {"molecule": "cyclamates", "relative sweetening intensity (RSI)": "about 30 times that of sucrose"}]}]}
